For test [1], the target named is T1, SIRT2 (Homo sapiens, UniProt Q8IXJ6).
T1 sequence (Q8IXJ6 1-389): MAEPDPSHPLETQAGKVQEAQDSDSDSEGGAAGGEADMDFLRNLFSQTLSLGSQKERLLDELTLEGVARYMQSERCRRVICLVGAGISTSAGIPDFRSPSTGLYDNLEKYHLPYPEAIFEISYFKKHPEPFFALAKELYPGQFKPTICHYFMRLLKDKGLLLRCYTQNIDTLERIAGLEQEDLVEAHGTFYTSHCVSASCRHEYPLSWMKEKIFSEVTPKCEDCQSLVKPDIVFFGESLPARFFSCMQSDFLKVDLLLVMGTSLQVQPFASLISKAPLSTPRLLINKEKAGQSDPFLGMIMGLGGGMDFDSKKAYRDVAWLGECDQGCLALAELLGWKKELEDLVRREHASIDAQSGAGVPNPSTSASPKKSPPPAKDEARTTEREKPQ
As to the kind of experiment: SIRT-Glo enzyme inhibition assay, SIRT2. The note with it: for IC50: SIRT2 IC50; for inhibition at 50 µM: read-out: SIRT2 percentage inhibition at 50 µM compound, 50 µM compound.
Protocol: (§1) SIRT1, SIRT2, and SIRT3 were purchased from Cayman Chemical. Enzyme inhibition assays were performed in 96-well black plates using the SIRT-Glo Assay (Promega Corp.) according to the manufacturer’s instructions. Compounds were dissolved in 100% DMSO and to make 5- or 10-mM stock solutions. For initial enzyme inhibition tests, 50 µM of inhibitory concentration was used. […] IC50 values were determined in triplicate and reported values are averages of two independent experiments.

Test [2] deals with T2, SIRT1 (Homo sapiens, UniProt Q96EB6).
T2 sequence (Q96EB6 1-747): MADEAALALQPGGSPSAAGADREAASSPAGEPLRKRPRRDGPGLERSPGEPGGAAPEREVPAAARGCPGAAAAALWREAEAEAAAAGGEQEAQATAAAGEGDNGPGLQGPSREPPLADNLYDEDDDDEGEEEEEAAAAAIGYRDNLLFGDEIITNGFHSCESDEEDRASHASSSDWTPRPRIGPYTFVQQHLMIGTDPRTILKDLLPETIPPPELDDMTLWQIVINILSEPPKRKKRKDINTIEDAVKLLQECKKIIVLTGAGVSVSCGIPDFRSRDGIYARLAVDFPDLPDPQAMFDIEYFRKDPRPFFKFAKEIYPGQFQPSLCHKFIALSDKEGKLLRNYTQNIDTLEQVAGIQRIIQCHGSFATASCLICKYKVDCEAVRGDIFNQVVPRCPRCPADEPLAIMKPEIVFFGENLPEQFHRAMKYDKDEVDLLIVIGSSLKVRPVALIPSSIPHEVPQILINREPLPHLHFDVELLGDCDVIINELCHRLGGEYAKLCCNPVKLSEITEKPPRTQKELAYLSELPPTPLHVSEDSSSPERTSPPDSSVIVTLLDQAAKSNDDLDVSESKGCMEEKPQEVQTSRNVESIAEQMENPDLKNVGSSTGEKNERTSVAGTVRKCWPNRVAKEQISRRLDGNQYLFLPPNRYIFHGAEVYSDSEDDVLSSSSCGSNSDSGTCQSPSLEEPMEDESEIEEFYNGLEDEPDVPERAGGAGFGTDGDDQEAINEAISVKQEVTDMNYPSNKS
Nature of the test: SIRT-Glo enzyme inhibition assay, SIRT1. The note with it: for inhibition at 50 µM: read-out: SIRT1 percentage inhibition at 50 µM compound, 50 µM compound.
Protocol: as §1

Test [3] has as its target T3, SIRT3 (Homo sapiens, UniProt Q9NTG7).
T3 sequence (Q9NTG7 1-399): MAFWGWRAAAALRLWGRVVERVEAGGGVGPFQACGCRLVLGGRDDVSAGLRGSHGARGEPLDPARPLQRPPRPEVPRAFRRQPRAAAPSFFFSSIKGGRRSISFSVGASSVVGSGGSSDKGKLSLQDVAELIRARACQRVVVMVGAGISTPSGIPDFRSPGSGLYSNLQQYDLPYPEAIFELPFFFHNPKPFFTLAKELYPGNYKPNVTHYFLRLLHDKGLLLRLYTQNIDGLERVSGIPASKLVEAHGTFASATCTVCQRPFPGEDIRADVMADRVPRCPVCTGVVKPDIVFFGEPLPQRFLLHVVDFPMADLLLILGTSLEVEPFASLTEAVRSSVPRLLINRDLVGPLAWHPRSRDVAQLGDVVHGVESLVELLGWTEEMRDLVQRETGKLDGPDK
As to the kind of experiment: SIRT-Glo enzyme inhibition assay, SIRT3. The settings on record: read-out: SIRT3 percentage inhibition at 50 µM compound, 50 µM compound.
Protocol: as §1

The values that follow come from PMC7036909, “Discovery of Selective SIRT2 Inhibitors as Therapeutic Agents in B-Cell Lymphoma and Other Malignancies” (Molecules, 2020).

For the molecule “2-[(6-Bromo-2-hydroxynaphthalen-1-yl)methyl]-1-[4-(trifluoromethyl)phenyl]hex-5-yne-1,3-dione [Compound 46]”, the “SIRT2 percentage inhibition at 50 µM compound” value (shortened to “SIRT2 percentage inhibition”) in test [1] was determined as 88%. Also, the “SIRT1 percentage inhibition at 50 µM compound” value (“SIRT1 percentage inhibition” for short) in test [2] amounted to 28%.
Take “2-[(6-Bromo-2-hydroxynaphthalen-1-yl)methyl]-3-(3-bromophenyl)-N-(furan-3-ylmethyl)-3-oxopropanamide [Compound 39]”: the “SIRT2 percentage inhibition” value in test [1] worked out at 30%. Besides, the “SIRT1 percentage inhibition” value in test [2] is recorded as 13%.
In the case of “2-[(6-Bromo-2-hydroxynaphthalen-1-yl)methyl]-3-(4-acetamidophenyl)-3-oxopropanamide [Compound 28]”, the “SIRT2 percentage inhibition” value in test [1] is recorded as 58%. In addition, in test [2], the “SIRT1 percentage inhibition” value is 0.0%.
In general, IC50 refers to the concentration at which inhibition is half-maximal. Read a low IC50 as greater potency in that assay. The term inhibition denotes the share of the control response that was lost under treatment. Regarding `Cc1ccc(C(=O)C(Cc2c(O)ccc3cc(Br)ccc23)C(N)=O)cc1` (stereo not drawn) [Compound 4, 2-[(6-Bromo-2-hydroxynaphthalen-1-yl)methyl]-3-(4-methylphenyl)-3-oxopropanamide], the results for the IC50 in test [1] and in test [2] were 13 µM and over 200 µM, respectively. The inhibition at 50 µM came to 89% in test [1] and 9% in test [2].
Consider `Cc1cccc(C(=O)C(Cc2c(O)ccc3cc(Br)ccc23)C(N)=O)c1` (stereo not drawn) [Compound 16, 2-[(6-Bromo-2-hydroxynaphthalen-1-yl)methyl]-3-(3-methylphenyl)-3-oxopropanamide], for which the inhibition at 50 µM in test [1] was found to be 70%; in test [2] it was 38%.
Turning to `Cc1ccccc1C(=O)C(Cc1c(O)ccc2cc(Br)ccc12)C(N)=O` (stereo not drawn) [Compound 17, 2-[(6-Bromo-2-hydroxynaphthalen-1-yl)methyl]-3-(2-methylphenyl)-3-oxopropanamide], the figures for the inhibition at 50 µM in test [1] and in test [2] were 3% and 0%, respectively.
The matching figures for `NC(=O)C(Cc1c(O)ccc2cc(Br)ccc12)C(=O)c1ccccc1` (stereo not drawn) [Compound 18, 2-[(6-Bromo-2-hydroxynaphthalen-1-yl)methyl]-3-oxo-3-phenylpropanamide]: 57% and 0%.
In test [1], `NC(=O)C(Cc1c(O)ccc2cc(Br)ccc12)C(=O)c1ccc(C(F)(F)F)cc1` (stereo not drawn) [Compound 20, 2-[(6-Bromo-2-hydroxynaphthalen-1-yl)methyl]-3-(4-trifluoromethylphenyl)-3-oxopropanamide] returned an IC50 of 1.9 µM. In addition, the figures for the inhibition at 50 µM in test [1], in test [2] and in test [3] were 100%, 0% and 5%, respectively.
The matching figures for `NC(=O)C(Cc1c(O)ccc2cc(Br)ccc12)C(=O)c1cccc(C(F)(F)F)c1` (stereo not drawn) [Compound 21, 2-[(6-Bromo-2-hydroxynaphthalen-1-yl)methyl]-3-(3-trifluoromethylphenyl)-3-oxopropanamide]: 12.6 µM, 89%, 0% and 15%.
The matching figures for `NC(=O)C(Cc1c(O)ccc2cc(Br)ccc12)C(=O)c1cccc(Br)c1` (stereo not drawn) [Compound 23, 2-[(6-Bromo-2-hydroxynaphthalen-1-yl)methyl]-3-(3-bromo)-3-oxopropanamide]: 8.95 µM, 91%, 53% and 41%.
With `COc1ccc(C(=O)C(Cc2c(O)ccc3cc(Br)ccc23)C(N)=O)cc1` (stereo not drawn) [Compound 24, 2-[(6-Bromo-2-hydroxynaphthalen-1-yl)methyl]-3-(4-methoxy)-3-oxopropanamide], the inhibition at 50 µM came to 72% in test [1] and 34% in test [2].
For `NC(=O)C(Cc1c(O)ccc2cc(Br)ccc12)C(=O)c1ccc(F)cc1` (stereo not drawn) [Compound 25, 2-[(6-Bromo-2-hydroxynaphthalen-1-yl)methyl]-3-(4-fluoro)-3-oxopropanamide], the IC50 in test [1] was found to be 12.4 µM. The values for the inhibition at 50 µM in test [1], in test [2] and in test [3] were 96%, 35% and 39%, respectively.
For the molecule `NC(=O)C(Cc1c(O)ccc2ccccc12)C(=O)c1cccc(Br)c1` (stereo not drawn) [Compound 29, 3-(3-Bromophenyl)-2-[(2-hydroxynaphthalen-1-yl)methyl]-3-oxopropanamide], the inhibition at 50 µM in test [1] was 14%; in test [2], 12%.
Turning to `COc1ccc2c(CC(C(N)=O)C(=O)c3cccc(Br)c3)c(O)ccc2c1` (stereo not drawn) [Compound 30, 3-(3-Bromophenyl)-2-[(2-hydroxy-6-methoxynaphthalen-1-yl)methyl]-3-oxopropanamide], the inhibition at 50 µM in test [1] amounted to 32%; in test [2] it was 0%.
In the case of `NC(=O)C(Cc1c(O)c(Br)cc2ccccc12)C(=O)c1cccc(Br)c1` (stereo not drawn) [Compound 31, 2-[(3-Bromo-2-hydroxynaphthalen-1-yl)methyl]-3-(3-bromophenyl)-3-oxopropanamide], the inhibition at 50 µM was 37% in test [1] and 0% in test [2].
In the case of `NC(=O)C(Cc1c(O)ccc2ccc(Br)cc12)C(=O)c1cccc(Br)c1` (stereo not drawn) [Compound 32, 2-[(7-Bromo-2-hydroxynaphthalen-1-yl)methyl]-3-(3-bromophenyl)-3-oxopropanamide], the inhibition at 50 µM came out at 16% in test [1] and 0% in test [2].
For `O=C(NCCO)C(Cc1c(O)ccc2cc(Br)ccc12)C(=O)c1cccc(Br)c1` (stereo not drawn) [Compound 36, 2-[(6-Bromo-2-hydroxynaphthalen-1-yl)methyl]-3-(3-bromophenyl)-N-(2-hydroxyethyl)-3-oxopropanamide], in test [1], the half-inhibitory concentration (IC50) is 4.75 µM. For the same molecule, the inhibition at 50 µM was found to be 94% in test [1], 0% in test [2] and 43% in test [3].
For `O=C(c1cccc(Br)c1)C(Cc1c(O)ccc2cc(Br)ccc12)C(=O)N1CCOCC1` (stereo not drawn) [Compound 38, 2-[(6-Bromo-2-hydroxynaphthalen-1-yl)methyl]-1-(3-bromophenyl)-3-(morpholin-4-yl)propane-1,3-dione], the inhibition at 50 µM is 22% in test [1] and 1% in test [2].
`COCCNC(=O)C(Cc1c(O)ccc2cc(Br)ccc12)C(=O)c1cccc(Br)c1` (stereo not drawn) [Compound 41, 2-[(6-Bromo-2-hydroxynaphthalen-1-yl)methyl]-3-(3-bromophenyl)-N-(2-methoxyethyl)-3-oxopropanamide]: the inhibition at 50 µM was 53% in test [1] and 0% in test [2].
`O=C(NCc1cccnc1)C(Cc1c(O)ccc2cc(Br)ccc12)C(=O)c1cccc(Br)c1` (stereo not drawn) [Compound 42]: the inhibition at 50 µM in test [1] amounted to 6%; in test [2], 3%.
Regarding `CNC(=O)CCNC(=O)C(Cc1c(O)ccc2cc(Br)ccc12)C(=O)c1cccc(Br)c1` (stereo not drawn) [Compound 44, 2-[(6-Bromo-2-hydroxynaphthalen-1-yl)methyl]-3-(3-bromophenyl)-N-[2-(methylcarbamoyl)ethyl]-3-oxo-propanamide], in test [1], it took 6.5 µM to reach half-maximal inhibition (IC50) and the inhibition at 50 µM was 98%. Besides, in test [2], the inhibition at 50 µM amounted to 0%.
Consider `CN1CCN(C(=O)C(Cc2c(O)ccc3cc(Br)ccc23)C(=O)c2ccc(C(F)(F)F)cc2)CC1` (stereo not drawn) [Compound 45, 2-[(6-Bromo-2-hydroxynaphthalen-1-yl)methyl]-1-(4-methylpiperazin-1-yl)-3-[4-(trifluoromethyl)phenyl]-propane-1,3-dione], for which the inhibition at 50 µM came out at 88% in test [1] and 10% in test [2].
